Test results taken from patent US9428508B2, “2,4-diamino-6,7-dihydro-5H-pyrrolo[2,3]pyrimidine derivatives as FAK/Pyk2 inhibitors” (Centaurus BioPharma Co., Ltd., priority 2011, dated 2016).

Key:
FAK = FAK (Homo sapiens (Human), UniProt Q05397); assay: Biochemical assay for FAK activity (LANCE TR-FRET, ULight-poly Glu,Ala,Tyr substrate); settings: GST-tagged FAK, 120 min reaction
How it was run: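 GST-tagged FAK (2.5 nM working stock) with ULight-poly Glu,Ala,Tyr (666 nM stock) and ATP (33.3 μM stock) in Tris pH 7.5/MgCl2/DTT/CHAPS buffer with BSA, 120 min; EDTA-quenched. Phosphorylation read by TR-FRET with Eu-anti-phosphotyrosine (PY20) antibody after 60 min. Compounds tested as 12-point 3-fold dilutions.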

PYK2 = PYK2 (Homo sapiens (Human), UniProt Q14289); assay: Biochemical assay for PYK2 activity (LANCE TR-FRET, ULight-poly Glu,Ala,Tyr substrate); settings: GST-tagged PYK2, 40 min reaction
How it was run: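 GST-tagged human PYK2 (2 nM working stock) with ULight-poly Glu,Ala,Tyr (1:1:1) peptide (666 nM working stock) and ATP (46.6 μM working stock) in 40 mM Tris pH 7.5, MgCl2, 1 mM DTT, 1 mM CHAPS; 40 min reaction, EDTA quench. Phosphotyrosine read by LANCE Eu-anti-phosphotyrosine (PY20) TR-FRET after 60 min; 12-point 3-fold compound dilutions.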

PYK2, sequence (Q14289 whole entry): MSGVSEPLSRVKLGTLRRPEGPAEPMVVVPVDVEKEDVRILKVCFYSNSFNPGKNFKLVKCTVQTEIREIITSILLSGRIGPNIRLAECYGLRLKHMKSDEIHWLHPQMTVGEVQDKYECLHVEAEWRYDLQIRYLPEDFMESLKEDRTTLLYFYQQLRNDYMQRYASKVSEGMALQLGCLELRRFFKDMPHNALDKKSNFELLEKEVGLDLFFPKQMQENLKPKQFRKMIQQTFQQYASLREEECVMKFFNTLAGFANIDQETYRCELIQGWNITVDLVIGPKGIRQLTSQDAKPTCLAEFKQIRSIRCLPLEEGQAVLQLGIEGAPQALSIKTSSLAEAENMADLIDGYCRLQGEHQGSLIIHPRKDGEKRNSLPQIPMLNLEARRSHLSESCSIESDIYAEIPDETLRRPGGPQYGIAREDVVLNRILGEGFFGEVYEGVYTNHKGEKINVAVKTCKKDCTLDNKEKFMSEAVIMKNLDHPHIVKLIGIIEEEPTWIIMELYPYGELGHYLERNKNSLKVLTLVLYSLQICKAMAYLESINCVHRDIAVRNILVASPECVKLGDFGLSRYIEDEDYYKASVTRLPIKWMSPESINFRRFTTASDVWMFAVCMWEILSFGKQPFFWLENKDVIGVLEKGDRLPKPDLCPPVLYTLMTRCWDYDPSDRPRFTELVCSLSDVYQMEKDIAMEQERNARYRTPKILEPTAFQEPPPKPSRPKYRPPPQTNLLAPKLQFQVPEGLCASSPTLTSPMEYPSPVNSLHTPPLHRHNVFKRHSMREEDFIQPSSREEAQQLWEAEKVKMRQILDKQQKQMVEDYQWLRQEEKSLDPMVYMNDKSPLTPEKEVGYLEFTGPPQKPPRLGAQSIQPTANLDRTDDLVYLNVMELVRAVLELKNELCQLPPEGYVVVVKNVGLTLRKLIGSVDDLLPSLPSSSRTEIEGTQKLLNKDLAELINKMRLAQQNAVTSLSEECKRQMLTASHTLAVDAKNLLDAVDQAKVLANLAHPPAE
FAK, sequence (Q05397 whole entry): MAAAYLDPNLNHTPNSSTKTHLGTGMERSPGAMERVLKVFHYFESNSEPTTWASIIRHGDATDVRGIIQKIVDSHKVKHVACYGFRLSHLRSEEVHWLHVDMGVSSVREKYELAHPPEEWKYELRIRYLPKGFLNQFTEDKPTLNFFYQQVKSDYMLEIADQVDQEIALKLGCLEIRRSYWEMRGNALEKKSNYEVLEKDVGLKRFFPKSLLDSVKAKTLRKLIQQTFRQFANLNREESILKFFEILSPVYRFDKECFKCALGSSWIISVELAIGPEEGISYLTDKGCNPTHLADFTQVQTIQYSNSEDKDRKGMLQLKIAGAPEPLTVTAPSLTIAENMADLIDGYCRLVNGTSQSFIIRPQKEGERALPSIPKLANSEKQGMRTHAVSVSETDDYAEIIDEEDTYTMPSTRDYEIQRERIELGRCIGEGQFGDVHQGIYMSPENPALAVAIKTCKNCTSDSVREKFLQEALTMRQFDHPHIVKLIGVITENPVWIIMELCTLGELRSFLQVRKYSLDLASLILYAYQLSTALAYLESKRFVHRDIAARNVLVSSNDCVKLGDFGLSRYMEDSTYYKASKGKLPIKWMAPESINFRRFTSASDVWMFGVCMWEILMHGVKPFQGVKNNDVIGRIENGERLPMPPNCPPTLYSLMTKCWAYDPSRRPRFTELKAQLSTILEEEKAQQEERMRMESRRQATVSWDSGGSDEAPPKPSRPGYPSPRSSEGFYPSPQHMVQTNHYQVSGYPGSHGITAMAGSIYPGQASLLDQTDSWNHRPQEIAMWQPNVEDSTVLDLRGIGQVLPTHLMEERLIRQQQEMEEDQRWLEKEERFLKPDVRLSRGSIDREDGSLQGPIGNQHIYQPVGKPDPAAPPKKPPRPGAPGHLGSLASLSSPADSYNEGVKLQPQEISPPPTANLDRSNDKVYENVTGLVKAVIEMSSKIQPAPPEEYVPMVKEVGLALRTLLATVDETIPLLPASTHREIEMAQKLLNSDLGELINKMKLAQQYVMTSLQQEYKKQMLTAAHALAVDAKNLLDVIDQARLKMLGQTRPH

| IC50 (FAK) [nM] | IC50 (PYK2) [nM] | Structure (SMILES) |
| --- | --- | --- |
| < 20 | < 20 | CNS(=O)(=O)c1ccccc1Nc1nc(Nc2ccc(N3CCOCC3)cc2OC)nc2c1C(C)(C)CN2 [Example 103, 2-(2-(2-methoxy-4-morpholinophenylamino)-5,5-dimethyl-6,7-dihydro-5H-pyrrolo[2,3-d]pyrimidin-4-ylamino)-N-methylbenzenesulfonamide] |
| < 1000 | < 1000 | COc1cc(N2CCOCC2)ccc1Nc1nc2c(c(Nc3ccccc3NC(C)=O)n1)CCN2 [Example 9, N-(2-(2-(2-methoxy-4-morpholinophenylamino)-6,7-dihydro-5H-pyrrolo[2,3-d]pyrimidin-4-ylamino)phenyl)acetamide] |
| < 50 | < 50 | COCCNS(=O)(=O)c1ccccc1Nc1nc(Nc2ccc(N3CCOCC3)cc2OC)nc2c1CCN2 [Example 50, 2-(2-(2-methoxy-4-morpholinophenylamino)-6,7-dihydro-5H-pyrrolo[2,3-d]pyrimidin-4-ylamino)-N-(2-methoxyethyl)benzenesulfonamide] |
| > 1000 | > 1000 | CNC(=O)c1ccc2c(c1Nc1nc(Nc3ccc(N4CCOCC4)cc3OC)nc3c1CCN3)OCO2 [Example 2, 4-(2-(2-methoxy-4-morpholinophenylamino)-6,7-dihydro-5H-pyrrolo[2,3-d]pyrimidin-4-ylamino)-N-methylbenzo[d][1,3]dioxole-5-carboxamide] |
| < 20 | < 20 | COc1cc(N2CCOCC2)ccc1Nc1nc2c(c(Nc3ccccc3N(C)S(C)(=O)=O)n1)C1(CC1)CN2 [Example 156, N-(2-(2′-(2-methoxy-4-morpholinophenylamino)-6′,7′-dihydrospiro[cyclopropane-1,5′-pyrrolo[2,3-d]pyrimidine]-4′-ylamino)phenyl)-N-methylmethanesulfonamide] |
| < 20 | < 20 | COc1cc(N2CCOCC2)ccc1Nc1nc2c(c(Nc3ccccc3S(=O)(=O)NC3CCC3)n1)[C@H](C)CN2 [Example 36, (S)—N-cyclobutyl-2-(2-(2-methoxy-4-morpholinophenylamino)-5-methyl-6,7-dihydro-5H-pyrrolo[2,3-d]pyrimidin-4-ylamino)benzenesulfonamide] |
| < 20 | < 20 | COc1cc(N2CCC(N3CCN(C)CC3)CC2)ccc1Nc1nc2c(c(Nc3ccccc3S(=O)(=O)NC(C)C)n1)CCN2 [Example 96, N-isopropyl-2-(2-(2-methoxy-4-(4-(4-methylpiperazin-1-yl)piperidin-1-yl)phenylamino)-6,7-dihydro-5H-pyrrolo[2,3-d]pyrimidin-4-ylamino)benzenesulfonamide] |
| < 50 | < 50 | COc1cc(N2CCOCC2)ccc1Nc1nc2c(c(Nc3ccccc3S(=O)(=O)NCC3CC3)n1)C(C)(C)CN2 [Example 118, N-(cyclopropylmethyl)-2-(2-(2-methoxy-4-morpholinophenylamino)-5,5-dimethyl-6,7-dihydro-5H-pyrrolo[2,3-d]pyrimidin-4-ylamino)benzenesulfonamide] |
| < 100 | < 100 | COc1cc(N2CCOCC2)ccc1Nc1nc2c(c(Nc3ccccc3S(=O)(=O)NCC(C)C)n1)CCN2 [Example 45, N-isobutyl-2-(2-(2-methoxy-4-morpholinophenylamino)-6,7-dihydro-5H-pyrrolo[2,3-d]pyrimidin-4-ylamino)benzenesulfonamide] |
| < 20 | < 20 | COc1cc(N2CCOCC2)ccc1Nc1nc2c(c(Nc3ccccc3S(=O)(=O)NC(C)C)n1)CCN2 [Example 40, N-isopropyl-2-(2-(2-methoxy-4-morpholinophenylamino)-6,7-dihydro-5H-pyrrolo[2,3-d]pyrimidin-4-ylamino)benzenesulfonamide] |
| < 20 | < 50 | CC(C)NS(=O)(=O)c1ccccc1Nc1nc(Nc2ccc(N3CCOCC3)cn2)nc2c1CCN2 [Example 58, N-isopropyl-2-(2-(5-morpholinopyridin-2-ylamino)-6,7-dihydro-5H-pyrrolo[2,3-d]pyrimidin-4-ylamino)benzenesulfonamide] |
| < 20 | < 20 | CCCNS(=O)(=O)c1ccccc1Nc1nc(Nc2ccc(N3CCOCC3)cc2OC)nc2c1C1(CC1)CN2 [Example 148, 2-(2′-(2-methoxy-4-morpholinophenylamino)-6′,7′-dihydrospiro[cyclopropane-1,5′-pyrrolo[2,3-d]pyrimidine]-4′-ylamino)-N-propylbenzenesulfonamide] |
| < 50 | < 100 | COc1cc(N2CCCC2)ccc1Nc1nc2c(c(Nc3ccccc3S(=O)(=O)NC(C)C)n1)CCN2 [Example 67, N-isopropyl-2-(2-(2-methoxy-4-(pyrrolidin-1-yl)phenylamino)-6,7-dihydro-5H-pyrrolo[2,3-d]pyrimidin-4-ylamino)benzenesulfonamide] |
| < 20 | < 50 | CCN1C(=O)CCCc2c1ccc(Nc1nc3c(c(Nc4ccccc4C(=O)NC)n1)C(C)(C)CN3)c2OC [Example 133, 2-(2-(1-ethyl-6-methoxy-2-oxo-2,3,4,5-tetrahydro-1H-benzo[b]azepin-7-ylamino)-5,5-dimethyl-6,7-dihydro-5H-pyrrolo[2,3-d]pyrimidin-4-ylamino)-N-methylbenzamide] |
| < 20 | < 20 | COc1cc(N2CCS(=O)(=O)CC2)ccc1Nc1nc2c(c(Nc3ccccc3S(=O)(=O)NC(C)C)n1)CCN2 [Example 87, 2-(2-(4-(4-(S,S-dioxothio)piperidin-1-yl)-2-methoxyphenylamino)-6,7-dihydro-5H-pyrrolo[2,3-d]pyrimidin-4-ylamino)-N-isopropylbenzenesulfonamide] |
| < 100 | < 50 | COc1cc(N2CCOCC2)ccc1Nc1nc2c(c(Nc3ccccc3N(C)S(C)(=O)=O)n1)CCN2 [Example 10, N-(2-(2-(2-methoxy-4-morpholinophenylamino)-6,7-dihydro-5H-pyrrolo[2,3-d]pyrimidin-4-ylamino)phenyl)-N-methylmethanesulfonamide] |
| < 50 | < 200 | COc1cc(-n2cccn2)ccc1Nc1nc2c(c(Nc3ccccc3S(=O)(=O)NC(C)C)n1)CCN2 [Example 94, N-isopropyl-2-(2-(2-methoxy-4-(1H-pyrazol-1-yl)phenylamino)-6,7-dihydro-5H-pyrrolo[2,3-d]pyrimidin-4-ylamino)benzenesulfonamide] |
| < 20 | < 20 | CCCNS(=O)(=O)c1ccccc1Nc1nc(Nc2ccc(N3CCOCC3)cc2OC)nc2c1C(C)(C)CN2 [Example 106, 2-(2-(2-methoxy-4-morpholinophenylamino)-5,5-dimethyl-6,7-dihydro-5H-pyrrolo[2,3-d]pyrimidin-4-ylamino)-N-propylbenzenesulfonamide] |
| < 20 | < 20 | CCC(C)NS(=O)(=O)c1ccccc1Nc1nc(Nc2ccc(N3CCOCC3)cc2OC)nc2c1C(C)(C)CN2 (stereo not shown) [Example 112, N-sec-butyl-2-(2-(2-methoxy-4-morpholinophenylamino)-5,5-dimethyl-6,7-dihydro-5H-pyrrolo[2,3-d]pyrimidin-4-ylamino)benzenesulfonamide] |
| < 100 | > 2000 | COc1cc(N2CCOCC2)ccc1Nc1nc2c(c(NCc3ccccc3N(C)S(C)(=O)=O)n1)CCN2 [Example 11, N-(2-((2-(2-methoxy-4-morpholinophenylamino)-6,7-dihydro-5H-pyrrolo[2,3-d]pyrimidin-4-ylamino)methyl)phenyl)-N-methylmethanesulfonamide] |
| < 50 | < 100 | CCCCNS(=O)(=O)c1ccccc1Nc1nc(Nc2ccc(N3CCOCC3)cc2OC)nc2c1CCN2 [Example 39, N-butyl-2-(2-(2-methoxy-4-morpholinophenylamino)-6,7-dihydro-5H-pyrrolo[2,3-d]pyrimidin-4-ylamino)benzenesulfonamide] |
| < 50 | < 20 | CNC(=O)c1ccccc1Nc1nc(Nc2ccc(N3CCOCC3)cc2OC)nc2c1C1(CC1)CN2 [Example 152, 2-(2′-(2-methoxy-4-morpholinophenylamino)-6′,7′-dihydrospiro[cyclopropane-1,5′-pyrrolo[2,3-d]pyrimidine]-4′-ylamino)-N-methylbenzamide] |
| < 200 | < 200 | COc1cc(N2CCOCC2)ccc1Nc1nc2c(c(Nc3ccccc3NC(C)=O)n1)C(C)CN2 (racemic) [Example 30, (±)-N-(2-(2-(2-methoxy-4-morpholinophenylamino)-5-methyl-6,7-dihydro-5H-pyrrolo[2,3-d]pyrimidin-4-ylamino)phenyl)acetamide] |
| < 500 | < 500 | COc1cc(N2CCOCC2)ccc1Nc1nc2c(c(Nc3ccccc3S(=O)(=O)NC3CCCCC3)n1)C1(CC1)CN2 [Example 149, N-cyclohexyl-2-(2′-(2-methoxy-4-morpholinophenylamino)-6′,7′-dihydrospiro[cyclopropane-1,5′-pyrrolo[2,3-d]pyrimidine]-4′-ylamino)benzenesulfonamide] |
| < 100 | < 100 | CNC(=O)c1ccccc1Nc1nc(Nc2ccc(N3CCOCC3)cc2)nc2c1CCN2 [Example 158, N-methyl-2-(2-(4-morpholinophenylamino)-6,7-dihydro-5H-pyrrolo[2,3-d]pyrimidin-4-ylamino)benzamide] |
| < 50 | < 200 | COc1cc(N2CCOCC2)ccc1Nc1nc2c(c(Nc3ccccc3S(N)(=O)=O)n1)CCN2 [Example 41, 2-(2-(2-methoxy-4-morpholinophenylamino)-6,7-dihydro-5H-pyrrolo[2,3-d]pyrimidin-4-ylamino)benzenesulfonamide] |
